Test results as given in ChEMBL document CHEMBL3991944, “Enantiomers of spiro-oxindole compounds and their uses as therapeutic agents” (2013).
Converted amounts (≈) assume the structure as drawn. The source made the active and inactive calls.

Experiments:
[1] = target: Sodium channel protein type 9 subunit alpha (Homo sapiens) (UniProt Q15858); conditions: HEK293
Rattus norvegicus [2] = assay: Analgesic activity in rat model of chronic constriction injury-induced neuropathic pain assessed as reversal of pain response at 2% (w/v) administered topically as ointment measured upto 1 hr by electrovonfrey anesthesiometry; format: functional
Rattus norvegicus [3] = assay: Drug level in rat model of CFA-induced chronic inflammatory pain assessed as high plasma concentration at 200 mg/kg, po […]; format: ADME, organism-based; conditions: in vivo
Rattus norvegicus [4] = assay: Analgesic activity in rat model of CFA-induced chronic inflammatory pain assessed as reduction in nociceptive threshold at 200 mg/kg, po by Von Frey filament assay; format: functional, organism-based
[5] = Solubility of the compound in labrasol; format: physicochemical
[6] = Solubility of the compound in propylene glycol; format: physicochemical
[7] = Solubility of the compound in 60:40 of labrasol/transcutol; format: physicochemical
[8] = Solubility of the compound in 60:40 of labrasol/capryol 90; format: physicochemical
[9] = Solubility of the compound in 60:40 of labrasol/PEG 400; format: physicochemical
[10] = Solubility of the compound in PEG 400; format: physicochemical
[11] = Solubility of the compound in tween 80; format: physicochemical
[12] = Solubility of the compound in capryol 90; format: physicochemical
Homo sapiens [13] = assay: Toxicity in human assessed as decrease in skin irritation at 4 to 8% (w/w) administered topically as ointment for 21 consecutive days measured 7 days post last dose during phase-1 clinical trial; conditions: topical_or_ocular, 168 h
Homo sapiens [14] = assay: Toxicity in human assessed as serious adverse events at 4 to 8% (w/w) administered topically as ointment for 21 consecutive days during phase-1 clinical trial; conditions: topical_or_ocular
Homo sapiens [15] = assay: Toxicity in human assessed as change in laboratory assessments at 4 to 8% (w/w) administered topically as ointment for 21 consecutive days during phase-1 clinical trial; conditions: topical_or_ocular
Homo sapiens [16] = assay: Toxicity in human assessed as change in quiescent resting state at 4 to 8% (w/w) administered topically as ointment for 21 consecutive days during phase-1 clinical trial; conditions: topical_or_ocular
Homo sapiens [17] = assay: Toxicity in human assessed as decrease in skin irritation at 4 to 8% (w/w) administered topically as ointment for 21 consecutive days during phase-1 clinical trial; conditions: topical_or_ocular
Homo sapiens [18] = assay: Toxicity in human assessed as change in pulse rate at 4 to 8% (w/w) administered topically as ointment for 21 consecutive days during phase-1 clinical trial; conditions: topical_or_ocular
Homo sapiens [19] = assay: Toxicity in human assessed as mortality at 4 to 8% (w/w) administered topically as ointment for 21 consecutive days during phase-1 clinical trial; conditions: topical_or_ocular
Homo sapiens [20] = assay: Toxicity in human assessed as change in QTc interval at 4 to 8% (w/w) administered topically as ointment for 21 consecutive days during phase-1 clinical trial; conditions: topical_or_ocular
Homo sapiens [21] = assay: Analgesic activity in human assessed as dental pain relief at 500 mg administered as single dose measured 4 to 12 hrs post dose; format: functional
Rattus norvegicus [22] = assay: Analgesic activity in rat model of CFA-induced chronic inflammatory pain assessed as increase in Von Frey mechanical paw withdrawal threshold at 8% (w/v) administered topically by electrovonfrey anesthesiometry relative to baseline; format: functional
Homo sapiens [23] = assay: Toxicity in human assessed as change in vital signs at 4 to 8% (w/w) administered topically as ointment for 21 consecutive days during phase-1 clinical trial; conditions: topical_or_ocular
Homo sapiens [24] = assay: Toxicity in human assessed as change in physical appearance at 4 to 8% (w/w) administered topically as ointment for 21 consecutive days during phase-1 clinical trial; conditions: topical_or_ocular
Homo sapiens [25] = species: Homo sapiens; assay: Toxicity in human assessed as increase in discomfort at 0.1% compound solution for 4 consecutive days during phase-1 clinical trial

Sequence of Sodium channel protein type 9 subunit alpha (Homo sapiens) (Q15858 whole entry, looked up): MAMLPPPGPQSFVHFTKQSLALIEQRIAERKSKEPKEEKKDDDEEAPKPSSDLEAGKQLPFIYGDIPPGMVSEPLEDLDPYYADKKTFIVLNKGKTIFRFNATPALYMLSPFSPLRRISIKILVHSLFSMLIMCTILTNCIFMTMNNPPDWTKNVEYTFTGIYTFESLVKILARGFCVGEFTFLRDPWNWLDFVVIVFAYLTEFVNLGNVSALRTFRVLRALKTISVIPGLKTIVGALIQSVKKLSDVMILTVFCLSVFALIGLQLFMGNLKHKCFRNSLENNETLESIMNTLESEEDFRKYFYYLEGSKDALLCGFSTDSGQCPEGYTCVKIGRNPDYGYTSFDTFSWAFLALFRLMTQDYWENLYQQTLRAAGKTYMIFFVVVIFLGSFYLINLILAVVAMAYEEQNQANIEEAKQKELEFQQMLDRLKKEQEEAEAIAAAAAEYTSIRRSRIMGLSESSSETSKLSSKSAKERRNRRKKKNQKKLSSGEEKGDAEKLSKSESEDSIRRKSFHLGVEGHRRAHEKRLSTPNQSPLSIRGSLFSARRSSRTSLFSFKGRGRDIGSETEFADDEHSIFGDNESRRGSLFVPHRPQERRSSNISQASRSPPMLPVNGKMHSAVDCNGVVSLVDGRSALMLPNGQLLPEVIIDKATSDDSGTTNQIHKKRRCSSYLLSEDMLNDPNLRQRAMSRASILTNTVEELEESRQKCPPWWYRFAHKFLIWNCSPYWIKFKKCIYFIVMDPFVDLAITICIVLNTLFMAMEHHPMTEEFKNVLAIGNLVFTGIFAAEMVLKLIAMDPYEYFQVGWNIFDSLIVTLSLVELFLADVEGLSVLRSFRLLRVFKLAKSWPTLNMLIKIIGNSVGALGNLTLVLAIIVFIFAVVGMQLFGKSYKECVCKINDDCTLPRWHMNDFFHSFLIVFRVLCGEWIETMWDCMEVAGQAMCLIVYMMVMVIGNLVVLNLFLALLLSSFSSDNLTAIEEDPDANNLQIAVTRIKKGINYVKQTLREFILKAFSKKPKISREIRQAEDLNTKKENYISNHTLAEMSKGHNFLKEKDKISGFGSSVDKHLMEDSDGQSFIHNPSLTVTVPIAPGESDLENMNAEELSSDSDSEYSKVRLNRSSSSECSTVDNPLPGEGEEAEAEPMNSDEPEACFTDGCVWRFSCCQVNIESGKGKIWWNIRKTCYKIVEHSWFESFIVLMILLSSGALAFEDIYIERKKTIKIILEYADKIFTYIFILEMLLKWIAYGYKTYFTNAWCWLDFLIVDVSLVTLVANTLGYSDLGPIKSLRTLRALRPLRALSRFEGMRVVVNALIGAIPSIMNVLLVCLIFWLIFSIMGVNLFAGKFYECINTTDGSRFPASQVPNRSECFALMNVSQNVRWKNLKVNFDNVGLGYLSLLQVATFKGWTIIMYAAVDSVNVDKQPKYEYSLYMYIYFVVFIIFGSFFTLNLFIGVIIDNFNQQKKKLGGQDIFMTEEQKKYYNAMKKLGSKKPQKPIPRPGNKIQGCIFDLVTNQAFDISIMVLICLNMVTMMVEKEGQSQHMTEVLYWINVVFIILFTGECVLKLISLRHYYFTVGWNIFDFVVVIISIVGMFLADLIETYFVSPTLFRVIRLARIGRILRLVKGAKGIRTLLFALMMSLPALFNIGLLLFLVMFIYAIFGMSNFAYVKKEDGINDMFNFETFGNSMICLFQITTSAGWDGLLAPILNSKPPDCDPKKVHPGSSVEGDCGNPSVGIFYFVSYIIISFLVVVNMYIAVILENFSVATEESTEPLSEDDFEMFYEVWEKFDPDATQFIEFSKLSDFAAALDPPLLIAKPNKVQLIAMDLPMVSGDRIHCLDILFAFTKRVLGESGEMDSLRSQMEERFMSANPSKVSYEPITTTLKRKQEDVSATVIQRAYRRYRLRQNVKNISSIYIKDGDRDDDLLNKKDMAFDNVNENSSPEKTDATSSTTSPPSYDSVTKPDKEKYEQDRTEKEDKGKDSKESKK

| Structure (SMILES) | Kr [1] [µM] | Activity (Rattus norvegicus [2]) | Activity (Rattus norvegicus [4]) | solubility [5] [mg/mL] | solubility [7] [mg/mL] | solubility [8] [mg/mL] | solubility [9] [mg/mL] | solubility [10] [mg/mL] | solubility [11] [mg/mL] | solubility [12] [mg/mL] | other results |
| --- | --- | --- | --- | --- | --- | --- | --- | --- | --- | --- | --- |
| O=C1N(Cc2ccc(C(F)(F)F)o2)c2ccccc2[C@@]12COc1cc3c(cc12)OCO3 | > 10 | inactive | Active |  |  |  |  |  |  |  | Drug uptake (Rattus norvegicus [3]): Active |
| O=C1N(Cc2ccc(C(F)(F)F)o2)c2ccccc2C12COc1cc3c(cc12)OCO3 (configuration not stated) | > 10 | Active |  | 72.5 (≈ 169 mM) | 74.2 (≈ 173 mM) | 44.4 (≈ 103 mM) | 70.4 (≈ 164 mM) | < 50 | 64 (≈ 149 mM) | 18.1 (≈ 42.2 mM) | solubility [6]: 2.7 mg/mL (≈ 6.29 mM) |
| O=C1N(Cc2ccc(C(F)(F)F)o2)c2ccccc2[C@]12COc1cc3c(cc12)OCO3 [FUNAPIDE] | > 10 | Active | Active | 231 (≈ 538 mM) | 186 (≈ 433 mM) | 191 (≈ 445 mM) | 182 (≈ 424 mM) | > 55 | > 123 | 96 (≈ 224 mM) | Activity (Homo sapiens [13]): Non-Toxic; Activity (Homo sapiens [14]): Non-Toxic; Activity (Homo sapiens [15]): Non-Toxic; Activity (Homo sapiens [16]): Non-Toxic; Activity (Homo sapiens [17]): Non-Toxic; Activity (Homo sapiens [18]): Non-Toxic; Activity (Homo sapiens [19]): Non-Toxic; Activity (Homo sapiens [20]): Non-Toxic; Activity (Homo sapiens [21]): Active; Activity (Rattus norvegicus [22]): 45.06 - 45.1%; Activity (Homo sapiens [23]): Non-Toxic; Activity (Homo sapiens [24]): Non-Toxic |
| CCCCCCCCCCCCOS(=O)(=O)[O-].[Na+] [SODIUM LAURYL SULFATE] |  |  |  |  |  |  |  |  |  |  | Activity (Homo sapiens [25]): Toxic |
